Measurements published in patent publication US20260284011A1, “COMPOUNDS FOR RESTORING SUSCEPTIBILITY TO BETA-LACTAM ANTIBIOTICS” (UNIVERSITY OF NOTRE DAME DU LAC, priority 2023, published 2026).
Where two headings read alike, the source gives them in different places.

How the values were obtained:
Type in all cases: in vivo, mice
MRSA NRS21 = assay: Neutropenic thigh infection model; settings: single agent (4 20 mg·kg^−1 or OXA 40 mg·kg^−1 sc at 1, 9, 17 h), 24 h
Description: (§1) The neutropenic thigh infection model in mice is commonly used to test efficacy of antibacterial agents. It is a highly standardized and reproducible assay that evaluates attenuation of bacterial load (and not animal survival) as the endpoint. All current clinical antibiotics are evaluated in this model. The direct injection of bacteria into the thighs of mice mimics a human soft-tissue infection. Prior to infection, mice are made neutropenic by injection of cyclophosphamide to cause the temporary depletion of neutrophils, dampening the immune response and making mice more susceptible to infection. […] The potentiation of activity of β-lactam antibiotics by compound 4 observed in vitro, translates to in vivo activity.
(§2) Animals. Outbred 8-week-old female ICR mice for PK and neutropenic thigh infection studies were purchased from Envigo, Indianapolis, IN. The average weight of the mice for the PK study was 30 g (range 26.1 to 33.1 g); mice in the neutropenic thigh infection weights ranged from 24.2 to 37.7 g and were on average 29 g at the initiation of the study. Mice were housed in polycarbonate shoebox cages (for the PK study) or in disposable cages (for the infection studies) with ¼-inch corncob (The Andersons Inc., Maumee, OH) and Alpha-Dri (Shepherd Specialty Papers, Inc., Richland, MI) bedding with a 12-h light/dark cycle at 72° F. The animals were given food (Teklad 2918 irradiated extruded rodent diet) and water ad libitum. The food and water were autoclaved for the infection studies. All procedures were performed in accordance with and approved by the University of Notre Dame Institutional Animal Care and Use Committee.
(§3) Neutropenic thigh infection studies. Mice (n=5 per group, total of 155 mice) were made neutropenic by injection of cyclophosphamide (Sigma-Aldrich, St. Louis, MO) intraperitoneally at 200 mg·kg^−1 (100 μL of a 60 mg·mL^−1 solution) on days −4 and −1. MRSA NRS21 and FPR3757 were grown in Tryptic Soy Agar and diluted to a final concentration of 10^6 CFU·mL^−1 in Brain-heart Infusion. On day 0, 100 μL of bacterial inoculum was injected intramuscularly into each of the right and left thighs. […] MEM was given intraperitoneally at 50 or 100 mg·kg^−1. […] MEM was given intraperitoneally at 50 or 100 mg·kg^−1 at 1 h, 5 h, 9 h, 13 h, 17 h, and 21 h after infection. […] MEM was prepared in 10% DMSO/20% Tween80/70% saline (0.9% NaCl in sterilized water). A vehicle group was included. At 24 h after infection, the mice were euthanized. Both thighs were dissected aseptically, weighed, and homogenized with two volumes of 1×PBS in a Bullet blender (Next Advance, Inc., Averill Park, NY) at 4° C., followed by centrifugation. […] The number of colonies were counted. […]

MRSA FPR3757 = assay: Neutropenic thigh infection model; settings: MEM 50 mg·kg^−1 ip, 4 20 mg·kg^−1 sc, thighs at 24 h
Description: as §1, §2, §3

[1] = PK study, plasma and thighs; settings: mouse; for Cmax at 4 h: sc, single subcutaneous dose 25 mg·kg^−1; for Cmax at 4 h / concentration at 8 h: mice
Description: Pharmacokinetics of Compound 4 and In Vivo Efficacy. We next evaluated the pharmacokinetics (PK) of compound 4 and its distribution to the thighs (sites of infection in the disease model) after a single subcutaneous dose at 25 mg·kg^−1 to mice.
as §2
PK study. Mice (n=15) were given a single subcutaneous dose of compound 4 at 25 mg·kg^−1 (100 μL of 7.5 mg-mL-1 solution in 20% DMSO/20% Tween-80/60% sterilized water). At 0.5, 1, 2, 4, and 8 h, mice were euthanized. Terminal blood was collected by cardiac puncture into heparinized (sodium heparin, Sigma-Aldrich, St. Louis, MO) syringes, and centrifuged (20,000×g at 4° C. for 15 min) to obtain plasma. A 60-μL aliquot of plasma was mixed with 60 μL of a 10 μg·mL^−1 solution of internal standard in acetonitrile. After centrifugation (17,000×g for 10 min), a 60-μL of the supernatant was taken for ultraperformance liquid chromatography (UPLC) analysis with UV detection.
Thighs were excised, weighed, and mixed with 100 μL of 10 μg·mL^−1 of internal standard in acetonitrile. Acetonitrile (900 μL) was added, and the mixture was homogenized on a Bullet blender (Next Advance, Inc., Averill Park, NY). After centrifugation at 17,000×g for 10 min, the supernatant was collected. The extraction was repeated two additional times. The combined supernatants were concentrated on a speed vac. The residue was dissolved in 100 μL of acetonitrile, and the mixture was centrifuged. A 60-μL aliquot of the supernatant was placed in an autosampler vial.
Plasma and thigh samples were analyzed on a Waters Acquity UPLC (Waters Corp., Milford, MA) coupled with a diode array detector with UV detection at 320-330 nm. A C18 Atlantis™ T3 column 2.1 i.d.×100 mm length 3 μm-particle size column was used at a flow rate of 0.5 mL/min. The gradient consisted of 0.5-min from 80% A/20% B to 65% A/35% B, 4.5-min to 25% A/75% B, 0.5-min to 65% A/35% B, 2-min to 80% A/20% B, where A=0.1% formic acid in water and B=0.1% formic acid in acetonitrile. Internal standard and compound 4 eluted at 4.2 and 4.6 min, respectively.
Calibration curves containing known concentrations of compound 4 (ranging from 0 to 200 μg·g^−1 tissue for thighs or 0 to 40 μg·mL^−1 for plasma) and internal standard in blank control thigh tissue or control plasma were prepared. Concentrations in the thighs and plasma were determined from the calibration curve regression parameters relative to internal standard.

Structure (SMILES) | decrease in bacterial counts compared to vehicle-treated mice (MRSA NRS21) | log reduction compared to vehicle (MRSA FPR3757) | Tmax ([1]; plasma and thigh, plasma and thighs, 25 mg·kg^−1 sc, read-out: time at which maximum concentrations were achieved) | Cmax at 4 h ([1]; plasma, read-out: Maximum concentration in plasma) | concentration at 8 h ([1]; plasma, 25 mg·kg^−1 sc, read-out: concentration at 8 h in plasma) | Cmax at 4 h ([1]; thigh, read-out: Maximum concentration in thighs) | concentration at 8 h ([1]; thigh, 25 mg·kg^−1 sc, read-out: concentration at 8 h in thighs)
Cc1onc(-c2ccccc2)c1C(=O)N[C@@H]1C(=O)N2[C@@H]1SC(C)(C)[C@@H]2C(=O)O [OXA, oxacillin] | did not show a statistically significant decrease in bacterial counts | – | – | – | – | – | –
N#Cc1ccc2nc(SCB(O)O)n(Cc3ccc(C(F)(F)F)cc3C(F)(F)F)c2c1 [Compound 4, (((1-(2,4-bis(trifluoro-methyl)benzyl)-6-cyano-1H-benzo[d]imidazol-2-yl)thio)methyl)boronic acid] | did not show a statistically significant decrease in bacterial counts | 0.06 log | 4 h | 8500 ng/mL | 3900 ng/mL | 28000 ng/mL | 20000 ng/mL
C[C@@H](O)[C@H]1C(=O)N2C(C(=O)O)=C(S[C@@H]3CN[C@H](C(=O)N(C)C)C3)[C@H](C)[C@H]12 [MEM, meropenem] | – | 1.2 log | – | – | – | – | –
